Measured values reported in ChEMBL document CHEMBL3045592, “Studies of O,O-dimethyl α-(2,4-dichlorophenoxyacetoxy)ethylphosphonate (HW02) as a new herbicide. 1. Synthesis and herbicidal activity of HW02 and analogues as novel inhibitors of pyruvate dehydrogenase complex” (J Agric Food Chem, 2011).

Experiments:
Amaranthus spinosus [1] = assay: Post-emergence herbicidal activity against Amaranthus spinosus assessed as growth inhibition at 150 ai g/ha after 20 days by green house test; assay type: functional
Echinochloa crus-galli [2] = assay: Pre-emergence herbicidal activity against Echinochloa crus-galli (barnyard grass) assessed as growth inhibition at 1500 ai g/ha after 20 days by green house test; assay type: functional
[3] = biological target: T1, Pyruvate dehydrogenase complex (Pisum sativum) (UniProt P52902+P52904); assay: Inhibition of PDHc in Pisum sativum Zhongwan-2 (pea) shoot mitochondria assessed as decrease in rate of NADH formation using sodium pyruvate as substrate at 100 microg/g preincubated for 25 min before substrate addition measured after 1 min by spectrophotometric assay; assay type: protein-complex assay; conditions: Lathyrus oleraceus
Digitaria sanguinalis [4] = assay: Post-emergence herbicidal activity against Digitaria sanguinalis (hairy crabgrass) assessed as growth inhibition at 450 ai g/ha after 20 days by green house test; assay type: functional
Echinochloa crus-galli [5] = assay: Post-emergence herbicidal activity against Echinochloa crus-galli (barnyard grass) assessed as growth inhibition at 450 ai g/ha after 20 days by green house test; assay type: functional
Digitaria sanguinalis [6] = assay: Pre-emergence herbicidal activity against Digitaria sanguinalis (hairy crabgrass) assessed as growth inhibition at 450 ai g/ha after 20 days by green house test; assay type: functional
Abutilon theophrasti [7] = assay: Pre-emergence herbicidal activity against Abutilon theophrasti (velvetleaf) assessed as growth inhibition at 75 ai g/ha after 20 days by green house test; assay type: functional
Abutilon theophrasti [8] = assay: Post-emergence herbicidal activity against Abutilon theophrasti (velvetleaf) assessed as growth inhibition at 450 ai g/ha after 20 days by green house test; assay type: functional
Setaria viridis [9] = assay: Pre-emergence herbicidal activity against Setaria viridis (green foxtail) assessed as growth inhibition at 75 ai g/ha after 20 days by green house test; assay type: functional
Digitaria sanguinalis [10] = assay: Post-emergence herbicidal activity against Digitaria sanguinalis (hairy crabgrass) assessed as growth inhibition at 150 ai g/ha after 20 days by green house test; assay type: functional
[11] = tested on: Brassica rapa subsp. oleifera; assay: Post-emergence herbicidal activity against Brassica rapa subsp. oleifera Si Yue Man assessed as growth inhibition at 1500 ai g/ha after 20 days by green house test; assay type: functional
Setaria viridis [12] = assay: Post-emergence herbicidal activity against Setaria viridis (green foxtail) assessed as growth inhibition at 150 ai g/ha after 20 days by green house test; assay type: functional
Amaranthus retroflexus [13] = assay: Post-emergence herbicidal activity against Amaranthus retroflexus assessed as growth inhibition at 1500 ai g/ha after 20 days by green house test; assay type: functional
Medicago sativa = assay: Pre-emergence herbicidal activity against Medicago sativa (alfalfa) assessed as growth inhibition at 1500 ai g/ha after 20 days by green house test; assay type: functional
Amaranthus spinosus [14] = assay: Pre-emergence herbicidal activity against Amaranthus spinosus assessed as growth inhibition at 450 ai g/ha after 20 days by green house test; assay type: functional
Digitaria sanguinalis [15] = assay: Pre-emergence herbicidal activity against Digitaria sanguinalis (hairy crabgrass) assessed as growth inhibition at 75 ai g/ha after 20 days by green house test; assay type: functional
[16] = biological target: T2, Pyruvate dehydrogenase complex (Pisum sativum, UniProt P52902+P52904); assay: Inhibition of PDHc in Pisum sativum Zhongwan-2 (pea) shoot mitochondria assessed as decrease in rate of NADH formation using sodium pyruvate as substrate preincubated for 25 min before substrate addition measured after 1 min by spectrophotometric assay; assay type: protein-complex assay, Lathyrus oleraceus
T2 sequence (P52902 whole entry): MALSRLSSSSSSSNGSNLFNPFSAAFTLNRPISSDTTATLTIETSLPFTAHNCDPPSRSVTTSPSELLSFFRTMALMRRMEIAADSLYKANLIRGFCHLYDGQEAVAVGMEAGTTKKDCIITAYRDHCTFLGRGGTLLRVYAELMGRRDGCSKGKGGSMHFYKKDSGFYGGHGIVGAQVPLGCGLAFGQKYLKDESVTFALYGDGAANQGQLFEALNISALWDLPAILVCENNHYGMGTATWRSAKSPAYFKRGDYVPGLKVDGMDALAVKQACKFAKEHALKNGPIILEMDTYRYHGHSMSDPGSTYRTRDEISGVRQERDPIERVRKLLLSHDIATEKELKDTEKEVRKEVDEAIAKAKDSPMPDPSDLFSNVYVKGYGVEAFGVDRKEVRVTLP
T2 sequence (P52904 whole entry): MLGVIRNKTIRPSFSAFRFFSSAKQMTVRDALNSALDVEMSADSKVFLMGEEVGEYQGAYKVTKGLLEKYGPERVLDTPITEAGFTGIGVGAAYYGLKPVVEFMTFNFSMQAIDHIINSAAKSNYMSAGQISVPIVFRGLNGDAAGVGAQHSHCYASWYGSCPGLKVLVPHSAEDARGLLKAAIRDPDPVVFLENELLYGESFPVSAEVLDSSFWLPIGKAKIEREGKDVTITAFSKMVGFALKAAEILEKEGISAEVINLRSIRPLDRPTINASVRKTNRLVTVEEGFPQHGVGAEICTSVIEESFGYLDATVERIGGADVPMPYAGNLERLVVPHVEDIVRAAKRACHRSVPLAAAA

[17] = biological target: T1, Pyruvate dehydrogenase complex (Pisum sativum); assay: Inhibition of PDHc in Pisum sativum Zhongwan-2 (pea) shoot mitochondria assessed as decrease in rate of NADH formation using sodium pyruvate as substrate at 1000 microg/g preincubated for 25 min before substrate addition measured after 1 min by spectrophotometric assay; assay type: protein-complex assay; conditions: Lathyrus oleraceus
Abutilon theophrasti [18] = assay: Post-emergence herbicidal activity against Abutilon theophrasti (velvetleaf) assessed as growth inhibition at 150 ai g/ha after 20 days by green house test; assay type: functional
Abutilon theophrasti [19] = assay: Pre-emergence herbicidal activity against Abutilon theophrasti (velvetleaf) assessed as growth inhibition at 150 ai g/ha after 20 days by green house test; assay type: functional
Chenopodium album [20] = assay: Post-emergence herbicidal activity against Chenopodium album assessed as growth inhibition at 450 ai g/ha after 20 days by green house test; assay type: functional
Chenopodium album [21] = assay: Post-emergence herbicidal activity against Chenopodium album assessed as growth inhibition at 75 ai g/ha after 20 days by green house test; assay type: functional
Chenopodium album [22] = assay: Pre-emergence herbicidal activity against Chenopodium album assessed as growth inhibition at 150 ai g/ha after 20 days by green house test; assay type: functional
[23] = biological target: T1, Pyruvate dehydrogenase complex (Pisum sativum); assay: Inhibition of PDHc in Pisum sativum Zhongwan-2 (pea) shoot mitochondria assessed as decrease in rate of NADH formation using sodium pyruvate as substrate at 0.1 microg/g preincubated for 25 min before substrate addition measured after 1 min by spectrophotometric assay; assay type: protein-complex assay; conditions: Lathyrus oleraceus
Amaranthus retroflexus [24] = assay: Pre-emergence herbicidal activity against Amaranthus retroflexus assessed as growth inhibition at 1500 ai g/ha after 20 days by green house test; assay type: functional
Digitaria sanguinalis [25] = assay: Pre-emergence herbicidal activity against Digitaria sanguinalis (hairy crabgrass) assessed as growth inhibition at 150 ai g/ha after 20 days by green house test; assay type: functional
Setaria viridis [26] = assay: Post-emergence herbicidal activity against Setaria viridis (green foxtail) assessed as growth inhibition at 75 ai g/ha after 20 days by green house test; assay type: functional
Abutilon theophrasti [27] = assay: Post-emergence herbicidal activity against Abutilon theophrasti (velvetleaf) assessed as growth inhibition at 75 ai g/ha after 20 days by green house test; assay type: functional
[28] = biological target: T1, Pyruvate dehydrogenase complex (Pisum sativum); assay: Inhibition of PDHc in Pisum sativum Zhongwan-2 (pea) shoot mitochondria assessed as decrease in rate of NADH formation using sodium pyruvate as substrate at 1 microg/g preincubated for 25 min before substrate addition measured after 1 min by spectrophotometric assay; assay type: protein-complex assay; conditions: Lathyrus oleraceus

With `O=C(O)COc1ccc(Cl)cc1Cl` [2,4-DICHLOROPHENOXYACETIC ACID] the “growth inhibition (GI)” value (Amaranthus spinosus [1]) was 92.5%, the “growth inhibition (GI)” value (Echinochloa crus-galli [2]) was 75% and the inhibition [3] was 27.8%. For the same compound, the “growth inhibition (GI)” value (Digitaria sanguinalis [4]) was 0%, the “growth inhibition (GI)” value (Echinochloa crus-galli [5]) was 35% and the “growth inhibition (GI)” value (Digitaria sanguinalis [6]) was 65%. The “growth inhibition (GI)” value (Abutilon theophrasti [7]) was 0%, the “growth inhibition (GI)” value (Abutilon theophrasti [8]) was 100% and the “growth inhibition (GI)” value (Setaria viridis [9]) was 0%. For the same compound, the “growth inhibition (GI)” value (Digitaria sanguinalis [10]) was 0%, the “growth inhibition (GI)” value [11] was 90% and the “growth inhibition (GI)” value (Setaria viridis [12]) was 0%. The “growth inhibition (GI)” value (Amaranthus retroflexus [13]) was 90%, the “growth inhibition (GI)” value (Medicago sativa) was 90% and the “growth inhibition (GI)” value (Amaranthus spinosus [14]) was 0%. For the same compound, the “growth inhibition (GI)” value (Digitaria sanguinalis [15]) was 0%, the IC50 [16] was greater than 4530 µM and the inhibition [17] was 48.1%. For the same compound, the “growth inhibition (GI)” value (Abutilon theophrasti [18]) was 100%, the “growth inhibition (GI)” value (Abutilon theophrasti [19]) was 0% and the “growth inhibition (GI)” value (Chenopodium album [20]) was 100%. The “growth inhibition (GI)” value (Chenopodium album [21]) was 72.5%, the “growth inhibition (GI)” value (Chenopodium album [22]) was 0% and the inhibition [23] was 8.8%. For the same compound, the “growth inhibition (GI)” value (Amaranthus retroflexus [24]) was 90%, the “growth inhibition (GI)” value (Digitaria sanguinalis [25]) was 10% and the “growth inhibition (GI)” value (Setaria viridis [26]) was 0%. The “growth inhibition (GI)” value (Abutilon theophrasti [27]) was 72.5% and the inhibition [28] was 12.9%.

For `COP(=O)(OC)C(C)OC(=O)COc1ccc(Cl)cc1Cl` (configuration not stated) [CLACYFOS], the “growth inhibition (GI)” value (Amaranthus spinosus [1]) was 100%, the “growth inhibition (GI)” value (Echinochloa crus-galli [2]) was 75% and the inhibition [3] was 59%. For the same compound, the “growth inhibition (GI)” value (Digitaria sanguinalis [4]) was 37.5%, the “growth inhibition (GI)” value (Echinochloa crus-galli [5]) was 35% and the “growth inhibition (GI)” value (Digitaria sanguinalis [6]) was 45%. The “growth inhibition (GI)” value (Abutilon theophrasti [7]) was 0%, the “growth inhibition (GI)” value (Abutilon theophrasti [8]) was 100% and the “growth inhibition (GI)” value (Setaria viridis [9]) was 0%. The “growth inhibition (GI)” value (Digitaria sanguinalis [10]) was 0%, the “growth inhibition (GI)” value [11] was 90% and the “growth inhibition (GI)” value (Setaria viridis [12]) was 0%. For the same compound, the “growth inhibition (GI)” value (Amaranthus retroflexus [13]) was 90%, the “growth inhibition (GI)” value (Medicago sativa) was 90% and the “growth inhibition (GI)” value (Amaranthus spinosus [14]) was 0%. For the same compound, the “growth inhibition (GI)” value (Digitaria sanguinalis [15]) was 0%, the IC50 [16] was 18.2 µM and the inhibition [17] was 73.8%. For the same compound, the “growth inhibition (GI)” value (Abutilon theophrasti [18]) was 100%, the “growth inhibition (GI)” value (Abutilon theophrasti [19]) was 0% and the “growth inhibition (GI)” value (Chenopodium album [20]) was 100%. For the same compound, the “growth inhibition (GI)” value (Chenopodium album [21]) was 92.5%, the “growth inhibition (GI)” value (Chenopodium album [22]) was 0% and the inhibition [23] was 31.1%. For the same compound, the “growth inhibition (GI)” value (Amaranthus retroflexus [24]) was 90%, the “growth inhibition (GI)” value (Digitaria sanguinalis [25]) was 0% and the “growth inhibition (GI)” value (Setaria viridis [26]) was 0%. The “growth inhibition (GI)” value (Abutilon theophrasti [27]) was 97.5% and the inhibition [28] was 44.3%.

`COP(=O)(COC(=O)COc1cccc(C(F)(F)F)c1)OC` was tested, and the “growth inhibition (GI)” value (Amaranthus spinosus [1]) was 0%, the “growth inhibition (GI)” value (Echinochloa crus-galli [2]) was 50% and the inhibition [3] was 49.2%. The “growth inhibition (GI)” value (Digitaria sanguinalis [4]) was 0%, the “growth inhibition (GI)” value (Echinochloa crus-galli [5]) was 0% and the “growth inhibition (GI)” value (Digitaria sanguinalis [6]) was 35%. The “growth inhibition (GI)” value (Abutilon theophrasti [7]) was 0%, the “growth inhibition (GI)” value (Abutilon theophrasti [8]) was 87.5% and the “growth inhibition (GI)” value (Setaria viridis [9]) was 0%. For the same compound, the “growth inhibition (GI)” value (Digitaria sanguinalis [10]) was 0%, the “growth inhibition (GI)” value [11] was 90% and the “growth inhibition (GI)” value (Setaria viridis [12]) was 0%. The “growth inhibition (GI)” value (Amaranthus retroflexus [13]) was “<=50%”, the “growth inhibition (GI)” value (Medicago sativa) was 75% and the “growth inhibition (GI)” value (Amaranthus spinosus [14]) was 0%. For the same compound, the “growth inhibition (GI)” value (Digitaria sanguinalis [15]) was 0%, the IC50 [16] was 442 µM and the inhibition [17] was 60.7%. The “growth inhibition (GI)” value (Abutilon theophrasti [18]) was 42.5%, the “growth inhibition (GI)” value (Abutilon theophrasti [19]) was 0% and the “growth inhibition (GI)” value (Chenopodium album [20]) was 82.5%. The “growth inhibition (GI)” value (Chenopodium album [21]) was 32.5%, the “growth inhibition (GI)” value (Chenopodium album [22]) was 0% and the inhibition [23] was 11.5%. For the same compound, the “growth inhibition (GI)” value (Amaranthus retroflexus [24]) was 50%, the “growth inhibition (GI)” value (Digitaria sanguinalis [25]) was 0% and the “growth inhibition (GI)” value (Setaria viridis [26]) was 0%. The “growth inhibition (GI)” value (Abutilon theophrasti [27]) was 27.5% and the inhibition [28] was 22.9%.
